Results published in the NIST ThermoML archive (doi:10.1016/j.jct.2012.12.017).
Numbers after ± are expanded uncertainties.

Key:
[1] = 298.15 K; 101.33 kPa; Liquid; Vibrating tube method
[2] = refractive index (Na D-line) (dimensionless); details: 298.15 K; 101.33 kPa; Liquid; Abbe refractometer

Row | mass density [1] | refractive index [2] | Compound
1 | 785.2 ± 0.24 kg/m3 | 1.35936 ± 0.00033 | CCO [ethanol]
2 | 679.57 ± 0.25 kg/m3 | 1.38529 ± 0.00033 | CCCCCCC [heptane]
3 | 655.2 ± 0.25 kg/m3 | 1.37241 ± 0.00033 | CCCCCC [hexane]

Row | Compound | mass density [1] | refractive index [2]
4 | CC[n+]1cccc(C)c1.O=S(=O)([N-]S(=O)(=O)C(F)(F)F)C(F)(F)F | 1488.5 ± 0.66 kg/m3 | 1.44376 ± 0.00033
5 | CCC[n+]1cccc(C)c1.O=S(=O)([N-]S(=O)(=O)C(F)(F)F)C(F)(F)F | 1447.94 ± 0.62 kg/m3 | 1.44485 ± 0.00033
